In PMC8243516, “Inhibition of lysosomal phospholipase A2 predicts drug-induced phospholipidosis” (Journal of Lipid Research, 2021):
Where a name gives a salt, the structure may show the parent alone. Read-outs that look alike come from different tables or passages of the source.

Key:
phospholipidosis = details: cited from earlier work
[1] = ref Pubchem and chEMBL databases; cited from earlier work
[2] = target: T1, recombinant mouse LPLA2 (PLA2G15) (Mus musculus, UniProt Q8VEB4); experiment: Transacylase activity of LPLA2 (1-O-acyl-N-acetylsphingosine synthase, cell-free liposome assay); type: biochemical
T1 construct: purchased Proteos Inc. (Kalamazoo, MI)
T1 sequence (Q8VEB4 34-412): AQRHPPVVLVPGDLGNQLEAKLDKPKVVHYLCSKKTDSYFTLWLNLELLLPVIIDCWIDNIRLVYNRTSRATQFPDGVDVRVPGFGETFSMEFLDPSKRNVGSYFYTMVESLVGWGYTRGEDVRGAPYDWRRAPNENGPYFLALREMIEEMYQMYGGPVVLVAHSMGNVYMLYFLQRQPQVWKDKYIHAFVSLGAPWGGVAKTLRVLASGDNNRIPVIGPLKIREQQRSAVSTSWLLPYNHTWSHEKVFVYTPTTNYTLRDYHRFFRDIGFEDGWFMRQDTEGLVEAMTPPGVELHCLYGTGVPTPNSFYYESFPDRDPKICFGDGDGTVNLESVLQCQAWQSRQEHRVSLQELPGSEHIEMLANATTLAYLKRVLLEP

LPLA2 = target: T2, LPLA2 (Mus musculus, UniProt Q8VEB4); experiment: LPLA2 thermal stability measurement (SYPRO Orange Tm); type: binding
T2 construct: purchased Proteos Inc. (Kalamazoo, MI)
T2 sequence (Q8VEB4 34-412): T1 sequence (Q8VEB4 34-412)

[3] = phospholipidosis reported in vitro, Refs of Table 1
[4] = 1-O-acyl N-acetylsphingosine synthase activity, pH 4.5, DOPC/sulfatide liposomes, read-out: LPLA2 IC50

COc1ccc(CCN2CCC(Nc3nc4ccccc4n3Cc3ccc(F)cc3)CC2)cc1 [Astemizole, 1-(4-fluorobenzyl)-2-(1-[4-methoxyphenethyl]piperidin-4-yl)aminobenzimidazole]
In Vitro PLD (phospholipidosis; [3]): Yes | pKa (basic) [1]: 8.75

CC(C)COCC(CN(Cc1ccccc1)c1ccccc1)N1CCCC1.Cl (centres unmarked) [Bepridil hydrochloride, 1-isobutoxy-2-pyrrolidino-3-(N-benzylanilino) propane hydrochloride]
IC50 [2, 4]: 7.17 µM | In Vitro PLD (phospholipidosis): Yes | pKa (basic) [1]: 9.16

CN1CCC[C@@H]1CCO[C@](C)(c1ccccc1)c1ccc(Cl)cc1 [Clemastine]
In Vitro PLD (phospholipidosis; [3]): Yes | pKa (basic) [1]: 9.55

CC(C)(C)NCC(O)c1cc(Cl)c(N)c(Cl)c1.Cl (stereo not drawn) [Clenbuterol, 4-amino-3,5-dichloro-α-[[(1,1-dimethylethyl)amino]methyl]-benzenemethanol, monohydrochloride]
LPLA2 inhibition (in words) [2]: millimolar concentrations | IC50 ([2]; LPLA2 IC50): 7300 µM | In Vitro PLD (phospholipidosis; [3]): Yes | (ΔTm)c-(ΔTm)d, difference in melting temperature of LPLA2 alone or in the presence of drug (LPLA2; N=3 ± SD): 1.20 ± 0.23 °C

CC(C)N=c1cc2n(-c3ccc(Cl)cc3)c3ccccc3nc-2cc1Nc1ccc(Cl)cc1 [Clofazimine, N,5-bis(4-chlorophenyl)-3,5-dihydro-3-(isopropylimino)phenazin-2-amine]
IC50 [2, 4]: 10.8 µM | In Vitro PLD (phospholipidosis; [3]): Yes | (ΔTm)c-(ΔTm)d, difference in melting temperature of LPLA2 alone or in the presence of drug (LPLA2; N=3 ± SD): -0.97 ± 0.1 °C

CN(C)CCOC(c1ccccc1)c1ccccc1 [Diphenhydramine]
In Vitro PLD (phospholipidosis; [3]): Yes

O=C(O)c1cc(O)ccc1O [Gentisic acid, 2,5-dihydroxybenzoic acid sodium salt]
In Vitro PLD (phospholipidosis; [3]): Yes

CN1CCC(=C2c3ccccc3CC(=O)c3sccc32)CC1 [Ketotifen]
IC50 [2, 4]: 19.7 µM | In Vitro PLD (phospholipidosis; [3]): Yes | (ΔTm)c-(ΔTm)d, difference in melting temperature of LPLA2 alone or in the presence of drug (LPLA2; N=3 ± SD): 0.10 ± 0.0 °C

CCOC(=O)N1CCC(=C2c3ccc(Cl)cc3CCc3cccnc32)CC1 [Loratadine, ethyl 4-{13-chloro-4-azatricyclo[9.4.0.0^3,^8]pentadeca-1(11),3(8),4,6,12,14-hexaen-2-ylidene}piperidine-1-carboxylate]
IC50 [2, 4]: 8.94 µM | In Vitro PLD (phospholipidosis; [3]): Yes

CCN(CCCCOC(=O)c1ccc(OC)c(OC)c1)C(C)Cc1ccc(OC)cc1 (centres unmarked) [Mebeverine, 4-{ethyl[1-(4-methoxyphenyl)propan-2-yl]amino}butyl 3,4-dimethoxybenzoate]
IC50 [2, 4]: 417 µM | (ΔTm)c-(ΔTm)d, difference in melting temperature of LPLA2 alone or in the presence of drug (LPLA2; N=3 ± SD): -0.05 ± 0.5 °C | pKa (basic) [1]: 10.31

CC12CC3CC(C)(C1)CC(N)(C3)C2.Cl [Memantine, 3,5-Dimethyl-1-adamantanamine hydrochloride]
IC50 [2, 4]: 35.7 µM | In Vitro PLD (phospholipidosis; [3]): Yes | (ΔTm)c-(ΔTm)d, difference in melting temperature of LPLA2 alone or in the presence of drug (LPLA2; N=3 ± SD): 2.00 ± 0.2 °C

CN(C)CCN(Cc1cccs1)c1ccccn1 [Methapyrilene, N-[2-(dimethylamino)ethyl]-N-[(thiophen-2-yl)methyl]pyridin-2-amine]
In Vitro PLD (phospholipidosis; [3]): Yes | pKa (basic) [1]: 8.85

CN1CCN2c3ccccc3Cc3ccccc3C2C1 (centres unmarked) [Mianserin, 5-methyl-2,5 diazatetracyclo [13.4.0.0^2,^7.0^8,^1³] nonadeca-1(19),8,10,12,15,17-hexaene]
In Vitro PLD (phospholipidosis; [3]): Yes | pKa (basic) [1]: 6.9

CC#C[C@]1(O)CC[C@H]2[C@@H]3CCC4=CC(=O)CCC4=C3[C@@H](c3ccc(N(C)C)cc3)C[C@@]21C [Mifepristone, (1S,3aS,3bS,10R,11aS)-10-[4-(dimethylamino)phenyl]-1-hydroxy-11a-methyl-1-(prop-1-yn-1-yl)-1H,2H,3H,3aH, 3bH,4H,5H,7H,8H, 9H,10H,11H,11aH-cyclopenta[a]phenanthren-7-one]
IC50 [2, 4]: 27.7 µM | (ΔTm)c-(ΔTm)d, difference in melting temperature of LPLA2 alone or in the presence of drug (LPLA2): 0.20 ± 0.0 °C | pKa (basic) [1]: 4.89

CN1CCN2c3ncccc3Cc3ccccc3C2C1 (centres unmarked) [Mirtazapine, 5-methyl-2,5,19-triazatetracyclo [13.4.0.0^2,^7.0^8,^1³] nonadeca-1(15),8,10,12,16,18-hexaene]
IC50 [2, 4]: 8.7 µM | (ΔTm)c-(ΔTm)d, difference in melting temperature of LPLA2 alone or in the presence of drug (LPLA2; N=3 ± SD): -1.30 ± 0.7 °C | pKa (basic) [1]: 6.67

Clc1ccc(C(c2ccccc2Cl)C(Cl)Cl)cc1 (centres unmarked) [Mitotane, 1-chloro-4-[2,2-dichloro-1-(2-chlorophenyl)ethyl] benzene]
IC50 [2, 4]: 132 µM | In Vitro PLD (phospholipidosis; [3]): Yes | (ΔTm)c-(ΔTm)d, difference in melting temperature of LPLA2 alone or in the presence of drug (LPLA2): 0.47 ± 0.1 °C

c1ccc2c(CC3=NCCN3)cccc2c1 [Naphazoline, 2-(naphthalen-1-ylmethyl)-4,5-dihydro-1H-imidazole]
In Vitro PLD (phospholipidosis; [3]): Yes | pKa (basic) [1]: 10.19

CCN(CC)CC#CCOC(=O)C(O)(c1ccccc1)C1CCCCC1 (stereo not drawn) [Oxybutynin, α-phenylcyclohexaneglycolic acid 4-(diethylamino)-2-butynyl ster hydrochloride]
In Vitro PLD (phospholipidosis; [3]): Yes | pKa (basic) [1]: 8.77

OCCN1CCN(CCCN2c3ccccc3Sc3ccc(Cl)cc32)CC1 [Perphenazine]
IC50 ([2]; LPLA2 IC50, 1-O-acyl N-acetylsphingosine synthase activity, pH 4.5, DOPC/sulfatide liposomes): 3.92 µM | (ΔTm)c-(ΔTm)d, difference in melting temperature of LPLA2 alone or in the presence of drug (LPLA2): -0.41 ± 0.2 °C | pKa (basic) [1]: 8.21

CCOc1ccc(NC(C)=O)cc1 [Phenacetin, N-(4-ethoxyphenyl) acetamide]
IC50 [2, 4]: 2140 µM | (ΔTm)c-(ΔTm)d, difference in melting temperature of LPLA2 alone or in the presence of drug (LPLA2; N=3 ± SD): -2.30 ± 0.6 °C | pKa (basic) [1]: -4.2

CCCN(CCC)CCc1cccc2c1CC(=O)N2 [Ropinirole, 4-[2-(dipropylamino)ethyl]-2,3-dihydro-1H-indol-2-one]
In Vitro PLD (phospholipidosis; [3]): Yes | pKa (basic) [1]: 10.17

O=C(CCCN1CCC2(CC1)C(=O)NCN2c1ccccc1)c1ccc(F)cc1 [Spiperone, 8-[3-(p-fluor benzoyl)propyl]-1-phenyl-1,3,8-triazaspiro [4.5]decan-4-one]
IC50 [2, 4]: 519 µM | In Vitro PLD (phospholipidosis; [3]): Yes | (ΔTm)c-(ΔTm)d, difference in melting temperature of LPLA2 alone or in the presence of drug (LPLA2; N=3 ± SD): 1.86 ± 0.1 °C

CC1=C(CC(=O)O)c2cc(F)ccc2/C1=C\c1ccc([S+](C)[O-])cc1 (centres unmarked) [Sulindac, 2-[(1Z)-5-fluoro-1-[(4-methanesulfinylphenyl)methylidene]-2-methyl-1H-inden-3-yl]acetic acid]
IC50 [2, 4]: 10.9 µM | In Vitro PLD (phospholipidosis; [3]): Yes | (ΔTm)c-(ΔTm)d, difference in melting temperature of LPLA2 alone or in the presence of drug (LPLA2; N=3 ± SD): -0.10 ± 0.0 °C

Nc1c2c(nc3ccccc13)CCCC2 [Tacrine, 1,2,3,4-tetrahydroacridin-9-amine]
In Vitro PLD (phospholipidosis): Yes
